How the values were obtained:
[1] = tested on: preimplantation mouse embryos (wild type, PPARδ+/+); assay: Complete hatching of cultured wild type mouse embryos; type: cell-based; details: for proportion of completely hatched embryos: 0.1 μM each ligand from two-cell stage, untreated 30%; for rate of complete hatching versus control, ligand added at two-cell, eight-cell or morula stage: exposure 0-96, 24-96 and 48-96 hrs; for rate of complete hatching versus control, ligand added at two-cell, eight-cell or morula stage / rate of complete hatching versus control, ligand added at blastocyst stage: read at 96 hrs; for rate of complete hatching versus control, ligand added at blastocyst stage: exposure 72-96 hrs
Source text: (§1) Harvest and culture of mouse embryos. Mice were obtained from the following sources: C3H, 129S1/SvImJ and C57BL6/J, the Jackson laboratory (Bar Harbor, Me., USA); ICR and C57BL6/Nhd, Harlan (Indianapolis, Ind., USA); PPARδ−/−, a gift from Dr. R. Evans (the Salk Institute, La Jolla, Calif.). The wild type (WT) counter parts of PPARδ−/− were bred by mating 129S1/SvImJ and the offspring of C57BL6/J×129S1/SvImJ. Mice were kept in temperature and humidity controlled environment (07:00 light on, 19:00 light off) with free access to food and water. The mouse embryos were harvested and cultured as described previously (Huang et al., 2003). Briefly, three-week old female mice were super-ovulated with intra-peritoneal injection of PMSG (5 IU) followed by hCG (5 IU) 42-46 hrs later. After hCG injection (at 15:00), each female mouse was caged with one male mouse with proven fertility. Unless specified otherwise, embryos (at two-cell stage) were harvested 44-48 hrs later and cultured (17-20 per group) at 37° C. under 5% CO2 in 4-well plates (Nalge Nunc International, Naperville, Ill., USA) containing 600 ul protein-free media. The HTF media (Sage Biopharma, Bedminster, N.J., USA) was used during the first 48 hrs; the αMEM (Irvine Scientific), with Earle's Salts and 2 mM glutamine, was used during the second 48 hrs. After 96 hrs of culture, each embryo was examined for the presence of zona pellucida. Those completely free of the zona pellucida were counted as having completely hatched. The rate of complete hatching was calculated by dividing the number of completely hatched embryos by the number of total embryos. Complete embryo hatching was used as an end point because it is a clear cut endpoint and correlates with the likelihood of implantation and viable pregnancy (Huang et al., 2003; Huang et al., 2004b). The concentration of the vehicle (DMSO) was less than 1:10,000; control embryos received the same concentration of DMSO. Prism® Version 3.0 (GraphPad Software Inc. San Diego, Calif.), with the Hill slope set at 1.0, was used to estimate the ED50 of L-165041. Chi-square and Student's t-tests were used where appropriate (InStat® Version 3.05, GraphPad Software Inc.). A p<0.05 was considered statistically significant.

[2] = tested on: PPARδ−/− embryos; assay: Complete hatching of cultured PPARδ−/− mouse embryos; type: cell-based; details: 96 h; for effect on hatching of PPARδ−/− embryos: 0.1 μM from two-cell stage
Source text: as §1, with “DMSO.” for “DMSO. Prism® Version 3.0 (GraphPad Software Inc. San Diego, Calif.), with the Hill slope set at 1.0, was used to estimate the ED50 of L-165041. Chi-square and Student's t-tests were used where appropriate (InStat® Version 3.05, GraphPad Software Inc.). A p<0.05 was considered statistically significant.”

[3] = tested on: mouse embryos transferred to gestational carriers; details: treated embryos transferred to gestational carriers; cited from earlier work
[4] = tested on: preimplantation mouse embryos (C3B6F1); assay: TUNEL assay, dead cell index in cultured embryos; type: cell-based; details: 0.1 μM, 72 hrs of culture
Experimental: Terminal deoxynucleotidyl transferase mediated dUTP Nick End Labeling (TUNEL) and dead cell index. The embryonic cells that undergo programmed cell death were identified by TUNEL assay using a commercial kit (In Situ Cell Death Detection Kit, Roche Applied Science) with some modifications. At each time point indicated, embryos were collected after culture or harvested from mice and fixed in 4° C. PBS containing 4% buffered paraformaldehyde for 30 min. Prior to TUNEL, the embryos were incubated at 37° C. with 5% triton in PBS for 20 mins. The manufacturer's protocol was modified. Up to 20 blastocysts were incubated at 37° C. in 20 uL of TUNEL reaction solution (2 uL of TUNEL enzyme and 18 uL of 1:4 diluted labeling solution) in a humidified chamber for 60 mins. The embryos were then incubated in DAPI (30 ug/mL) for 5 mins at 37° C. before mounted in 16.6% Elvanol® 50-42 (Dupont, Wilmington, Del., USA) in 0.1 M Tris HCl pH 8.5. The apoptotic cells and the total cells were visualized using a fluorescence microscope (AxioPlan 2, Carl Zeiss, Germany) with FITC and UV filters, respectively. DNAse-treated embryos were used as positive controls. The dead cell index (percent of cells that were TUNEL positive) was determined by dividing the number of TUNEL-positive cells by the number of total cells then multiplies by 100%.

[5] = tested on: preimplantation mouse embryos; assay: BrdU uptake, proliferation index and cell number in cultured embryos; type: cell-based
Experimental: 5-Bromo-2′-deoxy-uridine (BrdU) uptake and the proliferation index. The proliferation of embryonic cells was determined based on their abilities to incorporate BrdU. The assay was performed using a commercial kit (BrdU Labeling and Detection Kit I, Roche Applied Science, Indianapolis, Ind.) according to manufacturer's protocols with some optimizations. One of the changes was the duration of incubation. […] For the comparison between control and L165,041 treated embryos, the optimal time was 6 minutes. The modified procedure is as follows. Immediately after harvest, the embryos were incubated in 100 μl pre-equilibrated HTF medium containing 10 μM BrdU for […] at 37° C. under 5% CO2. Following the incubation, the embryos were fixed in ice-cold glycine (50 mM) in 70% ethanol (pH2.0) at −20° C. for 30 mins. Following rehydration/blocking in phosphate buffered saline (PBS) containing 1% BSA, the embryos were incubated with diluted anti-BrdU mouse monoclonal antibody (1:2) in the incubation buffer containing 1% BSA and followed by another incubation with a diluted FITC-conjugated […] IgG antibody (1:4) in PBS containing 1% BSA. Both incubations were at 37° C. and lasted for 30 mins; the embryos were washed in 200 μl PBS containing 1% BSA after each incubation. After a final incubation in DAPI (5 μg /ml) for 90 mins at 25° C., the embryos were mounted in 0.1 M Tris HCl (pH 8.5) containing 16.6% Elvanol® 50-42 (DuPont Wilmington, Del., USA) and 2.5% 1,4-diazabicyclo-(2.2.2)-octane. Cells that were in S-phase and, therefore, incorporated BrdU were identified under a FITC filter. Total cell number was determined based on DAPI nuclear staining under a UV filter (AxioPlan 2, Carl Zeiss, Germany). The proliferation index (percent of cells in S-phase) was determined by dividing the number of BrdU-positive cells by the number of total cells then multiplies by 100%.
The proliferation of embryonic cells was determined based on their abilities to incorporate BrdU. […] Total cell number was determined based on Hoechst 33258 nuclear staining under a UV filter.

[6] = tested on: PPARδ+/+ embryos transferred to gestational carriers (ICR female mice); assay: Embryo transfer to gestational carriers and determination of implantation rate; type: in vivo, mouse; details: wild type two-cell embryos treated 48 h, gestation sacs counted 72 h after transfer; control 41%, p<0.05
Experimental: Embryo transfer was performed as described previously (Huang et al., 2004b). Briefly, embryos were transferred to gestational carriers (ICR female mice) on day 2.5 of pseudopregnancy under a dissecting microscope (Olympus SZ-PT, Shinjuku-ku, Tokyo, Japan). After anesthesia, each uterine horn was accessed via a 1.5 cm flank incision. With the proximal oviduct held by a pair of forceps, an opening was created at the distal end of the uterine horn on the anti-mesenteric side with a 30 gauge needle. […] Up to seven embryos in 1.5 μl transfer medium (MEM with 25 mM HEPES and 1% BSA) were transferred to each horn. After each transfer, the contents of the pipette were examined under a stereomicroscope to identify retained embryos. To avoid the mixing of embryos as a result of embryo crossover (Dr. Andreas Zimmer, University of Bonn, Germany, MG118 List, the Jackson Laboratory), each gestational carrier received only one kind of embryo. […] Seventy-two h after embryo transfer, the rates of implantation were determined based on a previously-described method with modifications (Paria et al., 1993). […] After the carrier was sacrificed, the uterine horns were opened and the gestation sacs counted. The implantation rate was expressed as percentages of gestation sacs over total embryos transferred. […]

[7] = tested on: PPARδ+/+ embryos; assay: Developmental stage (blastocyst formation) of cultured embryos at time of transfer; type: cell-based, mouse; details: wild type two-cell embryos treated 48 h
Source text: Harvest and culture of mouse embryos. Mice were obtained from the following sources: C3H, 129S1/SvImJ and C57BL6/J, the Jackson laboratory (Bar Harbor, Me., USA); ICR and C57BL6/Nhd, Harlan (Indianapolis, Ind., USA); PPARδ−/−, a gift from Dr. R. Evans (the Salk Institute, La Jolla, Calif.). The wild type (WT) counter parts of PPARδ−/− were bred by mating 129S1/SvImJ and the offspring of C57BL6/J×129S1/SvImJ. Mice were kept in temperature and humidity controlled environment (07:00 light on, 19:00 light off) with free access to food and water. The mouse embryos were harvested and cultured as described previously (Huang et al., 2003). […] Those completely free of the zona pellucida were counted as having completely hatched. The rate of complete hatching was calculated by dividing the number of completely hatched embryos by the number of total embryos. […]
Embryo transfer was performed as described previously (Huang et al., 2004b). […] Seventy-two h after embryo transfer, the rates of implantation were determined based on a previously-described method with modifications (Paria et al., 1993). […] After the carrier was sacrificed, the uterine horns were opened and the gestation sacs counted. The implantation rate was expressed as percentages of gestation sacs over total embryos transferred. […]

| Compound | proportion of completely hatched embryos ([1]; wild type embryos, 96 h) [%] | completely hatched embryos versus total embryos ([1]; wild type embryos, 0.1 μM, 96 h) | effect on hatching of PPARδ−/− embryos [2] | completely hatched embryos versus total embryos ([2]; PPARδ−/− embryos, 0.1 μM, untreated 4/144) | more live births over control embryos [3] [%] | complete embryo hatching versus control ([1]; 1 μM ligand, two-cell embryos (C3B6F1), 96 hrs) | relative risk of complete hatching versus control group ([1]; 1 μM, 96 hrs, 95% confidence interval 1.08-3.36) | rate of complete hatching versus control, ligand added at two-cell, eight-cell or morula stage ([1]; 1 μM) | rate of complete hatching versus control, ligand added at two-cell, eight-cell or morula stage ([1]; 1 μM, listed as L-165041) | rate of complete hatching versus control, ligand added at blastocyst stage ([1]; 1 μM) | rate of complete hatching versus control, ligand added at blastocyst stage ([1]; 1 μM, listed as L-165041) | EC50 ([1]; Mus musculus, two-cell embryos cultured 96 hrs in different concentrations, estimated, Hill slope 1.0, read-out: ED50 of enhancement of complete embryo hatching) [nM] | dead (apoptotic, TUNEL positive) cells versus control [4] | cells in the S-phase (BrdU incorporation) versus control ([5]; 0.1 μM, 72 hrs of culture, BrdU 6 minutes) | average number of cells per embryo ([5]; 0.1 μM, 72 hrs of culture, same in control group) | percentages of BrdU-positive cells over the untreated control ([5]; 10 μM BrdU, wild type embryos) | implantation rate (gestation sacs over embryos transferred) [6] [%] | blastocyst formation versus control [7] |
| --- | --- | --- | --- | --- | --- | --- | --- | --- | --- | --- | --- | --- | --- | --- | --- | --- | --- | --- |
| CC#CCC(C)[C@H](O)/C=C/[C@@H]1[C@H]2C/C(=C/CCCC(=O)O)C[C@H]2C[C@H]1O (some centres unmarked) [iloprost] | 50 | 37/74 | had no effect | 3/144 | 28 | – | – | – | – | – | – | – | – | – | – | – | – | – |
| CCCc1c(OCCCOc2ccc(OCC(=O)O)cc2)ccc(C(C)=O)c1O [L165,041, 4-[3-(4-Acetyl-3-hydroxy-2-propylphenoxy)propoxy]phenoxy-acetic acid] | 54 | – | Neither iloprost nor L-165041 affected the hatching of PPARδ−/− embryos | – | – | enhanced complete embryo hatching | 1.9 | significantly higher rates of complete hatching | effective in stimulating embryo hatching | the difference was not statistically significant | no longer effective in stimulating hatching | 21 | less dead cells | more cells in the S-phase | 63 | increased the percentages of BrdU-positive cells | 64 | did not significantly enhance blastocyst formation |

From patent US8632452B2, “Peroxisome proliferator-activator receptor δ (PPARδ) and the development of preimplantation embryos” (Board of Regents of the University of Texas System, priority 2005, dated 2014)
